From patent US20260248972A1, “DUAL RECEPTOR TARGETING RADIOLIGANDS AND USES THEREOF RELATED APPLICATIONS” (priority 2022, published 2026)
One block for each compound: values may come before it. *1 amine or outer side, *2 acyl side, *3 side chain or, on linkers, in order; H or OH if unused. Where a SMILES comes first, the peptide text is derived from it. Bridges are numbered along the chain shown (N, C = ends). Roman numbers before positions name the chains, in order. Side-chain parts run from the residue outwards. [ ]: non-standard residue; d: D form. The star is where a group is joined. ξ: configuration not given here. X1 = CC(C)(C)C(=O)CN1C(=O)[C@H](N*)CN(C2CCCCC2)c2ccccc21; DOTA = O=C(O)CN1CCN(CC(=O)O)CCN(CC(=O)*)CCN(CC(=O)O)CC1; γGlu = O=C(O)[C@H](CCC(=O)[*:2])N[*:1]; X2 = CC(=O)[C@H](Cc1ccc(O)cc1)N*; X3 = CC(=O)[C@@H](N*)[C@@H](C)O; 3Abz = Nc1cccc(C(=O)O)c1; ξF = NC(Cc1ccccc1)C(=O)O; ξE = NC(CCC(=O)O)C(=O)O; AEEA = NCCOCCOCC(=O)O; CO = O=C([*:1])[*:2]

Key:
CCK2R [1] = molecular target: T1, CCK2R (Homo sapiens, UniProt P32239); assay: Competitive binding (FACS) on CCK2R-transfected HEK 293T cells with Cy5-labeled Z360; settings: HEK 293T transfected, Cy5-labeled Z360 competitive ligand (Table 3)
T1 construct: expressed in transfected cells; host or cells: HEK 293T cells
T1 sequence (P32239 1-447): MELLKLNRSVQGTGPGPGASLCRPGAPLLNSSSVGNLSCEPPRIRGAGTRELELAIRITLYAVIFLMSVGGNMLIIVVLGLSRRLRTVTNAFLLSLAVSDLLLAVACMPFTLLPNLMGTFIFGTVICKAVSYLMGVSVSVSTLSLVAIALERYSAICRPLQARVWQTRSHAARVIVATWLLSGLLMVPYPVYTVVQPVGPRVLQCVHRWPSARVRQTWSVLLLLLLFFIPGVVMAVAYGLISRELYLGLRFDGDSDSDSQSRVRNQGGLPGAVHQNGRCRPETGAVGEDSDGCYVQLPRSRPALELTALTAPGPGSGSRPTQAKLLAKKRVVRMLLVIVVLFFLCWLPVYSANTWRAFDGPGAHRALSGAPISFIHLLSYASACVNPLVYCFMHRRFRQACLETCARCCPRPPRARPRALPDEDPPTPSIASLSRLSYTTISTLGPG
Experimental: (§1) Binding Affinity Tested by Using Cy5-Labled Competitive Ligands.
(§2) HEK 293T cells were transfected with SSTR2 or CCK2R-expressing plasmid by Lipofectamine 2000 reagent. 24 hours after transfection, cells were harvested and suspended with assay buffer (1% OVA in DMEM). […] The testing compound was further supplemented into the wells at different concentrations. After incubation for 1 hour at dark, cells were washed and suspended in FACS buffer (1% OVA in DPBS). The fluorescent signal was detected by FACS machine and the binding affinity of the testing compound was evaluated by calculation of IC50 for competitive binding of reference compound.

in vivo = settings: BALB/c nude, mouse, in vivo, iv, total radioactivity
Method in brief: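 Compounds labelled with ^177Lu in 0.5 M NaOAc pH 4.5 at 95° C for 15 min, then used directly or diluted in PBS with 3 mg/mL ascorbate. BALB/c nude mice bore subcutaneous AR42J flank xenografts (0.05-0.50 g). Organs excised at 4, 24 and 72 h post-injection and γ-counted for % ID and % ID/g.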

CCK2R [2] = molecular target: T2, CCK2R (Rattus norvegicus, UniProt P30553); assay: Competitive cell-binding assay on AR42J cells with 125I-C3 as competitive ligand; settings: AR42J cells, 125I-C3 competitive ligand, 37° C. 1 h; read-out: CCK2R/IC50
T2 construct: host or cells: AR42J cells
T2 sequence (P30553 1-452): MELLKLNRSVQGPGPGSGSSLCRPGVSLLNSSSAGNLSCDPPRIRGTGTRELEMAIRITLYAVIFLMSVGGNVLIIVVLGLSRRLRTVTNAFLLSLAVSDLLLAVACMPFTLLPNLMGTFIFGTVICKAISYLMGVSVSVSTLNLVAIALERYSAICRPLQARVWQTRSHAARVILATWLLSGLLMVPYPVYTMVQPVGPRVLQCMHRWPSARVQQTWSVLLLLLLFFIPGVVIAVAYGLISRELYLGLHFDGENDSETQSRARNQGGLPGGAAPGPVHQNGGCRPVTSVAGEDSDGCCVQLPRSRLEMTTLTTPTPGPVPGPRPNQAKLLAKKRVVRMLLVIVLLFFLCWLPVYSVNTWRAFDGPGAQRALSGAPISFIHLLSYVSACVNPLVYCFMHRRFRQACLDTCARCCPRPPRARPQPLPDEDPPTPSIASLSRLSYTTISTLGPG
Method in brief: (§3)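 Rat AR42J cells (1~3×10^6 cells/mL) in RPMI-1640 with 0.25% BSA incubated with 125I-C1 or 125I-C3 (0.02 μCi/well) plus test compound (0-10000 nM) for 1 h at 37° C., n=3. Unbound ligand removed by filtration; bound radioactivity γ-counted; IC50 by nonlinear regression.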

SSTR2 [3] = molecular target: T3, SSTR2 (Rattus norvegicus, UniProt P30680); assay: Competitive cell-binding assay on AR42J cells with 125I-C1 as competitive ligand; settings: AR42J cells, 125I-C1 competitive ligand, 37° C. 1 h; read-out: SSTR2/IC50
T3 construct: host or cells: AR42J cells
Method in brief: as §3

CCK2R [4] = molecular target: T1, CCK2R; assay: Competitive binding (FACS) on CCK2R-transfected HEK 293T cells with Cy5-labeled F11N derivative; settings: HEK 293T transfected, Cy5-labeled F11N derivative competitive ligand (Table 4); read-out: CCK2R IC50
SSTR2 [5] = molecular target: T4, SSTR2 (Homo sapiens, UniProt P30874); assay: Competitive binding (FACS) on SSTR2-transfected HEK 293T cells with Cy5-labled DOTA-TATE; settings: HEK 293T transfected, Cy5-labled DOTA-TATE competitive ligand (Table 4)
T4 construct: expressed in transfected cells; host or cells: HEK 293T cells
Experimental: as §1, §2

T3 sequence (P30680 whole entry): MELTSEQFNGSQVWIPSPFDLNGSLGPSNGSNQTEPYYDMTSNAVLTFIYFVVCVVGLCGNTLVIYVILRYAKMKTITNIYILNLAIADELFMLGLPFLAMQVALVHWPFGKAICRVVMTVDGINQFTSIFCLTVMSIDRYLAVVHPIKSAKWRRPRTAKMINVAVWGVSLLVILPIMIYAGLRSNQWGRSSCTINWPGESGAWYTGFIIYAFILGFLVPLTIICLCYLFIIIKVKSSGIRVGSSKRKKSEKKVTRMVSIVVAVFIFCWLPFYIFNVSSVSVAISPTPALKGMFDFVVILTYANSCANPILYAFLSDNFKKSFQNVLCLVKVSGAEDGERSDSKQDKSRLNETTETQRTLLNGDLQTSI
T4 sequence (P30874 whole entry, species assumed): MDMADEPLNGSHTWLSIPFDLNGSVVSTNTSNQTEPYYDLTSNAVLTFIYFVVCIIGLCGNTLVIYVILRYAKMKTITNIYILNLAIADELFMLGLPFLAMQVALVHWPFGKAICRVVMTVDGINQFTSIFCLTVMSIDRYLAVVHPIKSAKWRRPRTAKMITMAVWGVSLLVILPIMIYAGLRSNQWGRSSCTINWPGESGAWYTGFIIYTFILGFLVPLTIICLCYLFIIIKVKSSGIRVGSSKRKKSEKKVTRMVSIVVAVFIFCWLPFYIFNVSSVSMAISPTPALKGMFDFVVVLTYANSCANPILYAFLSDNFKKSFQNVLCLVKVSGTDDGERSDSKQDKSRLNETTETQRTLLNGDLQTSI

- IC50 (CCK2R [1]): 7.13 nM
Compound: CC(O)[C@H](NC(=O)[C@@H]1CSSC[C@H](NC(=O)[C@@H](Cc2ccccc2)NC(=O)COCCOCCNC(=O)[C@H](CCCCNC(=O)CCC(NC(=O)CNC(=O)c2cccc(NC(=O)N[C@@H]3CN(C4CCCCC4)c4ccccc4N(CC(=O)C(C)(C)C)C3=O)c2)C(=O)O)NC(=O)COCCOCCNC(=O)COCCOCCNC(=O)CC[C@H](NC(=O)CN2CCN(CC(=O)O)CCN(CC(=O)O)CCN(CC(=O)O)CC2)C(=O)O)C(=O)N[C@@H](Cc2ccc(O)cc2)C(=O)N[C@H](Cc2c[nH]c3ccccc23)C(=O)N[C@@H](CCCCN)C(=O)N[C@@H]([C@@H](C)O)C(=O)N1)C(=O)O (stereo in doubt) [Compound I-21, DOTA-gE-OEG-OEG-K(-gE-G-Z360)-OEG-f[CYwKTC]T-OH]

Compound: C[C@@H](O)[C@H](NC(=O)[C@@H]1CSSC[C@H](NC(=O)[C@@H](Cc2ccccc2)NC(=O)COCCOCCNC(=O)[C@H](CCCCNC(=O)CC[C@H](NC(=O)CNC(=O)c2cccc(NC(=O)N[C@@H]3CN(C4CCCCC4)c4ccccc4N(CC(=O)C(C)(C)C)C3=O)c2)C(=O)O)NC(=O)CN2CCN(CC(=O)O)CCN(CC(=O)O)CCN(CC(=O)O)CC2)C(=O)N[C@@H](Cc2ccc(O)cc2)C(=O)N[C@H](Cc2c[nH]c3ccccc23)C(=O)N[C@@H](CCCCN)C(=O)N[C@@H]([C@@H](C)O)C(=O)N1)C(=O)O [Compound I-1, DOTA-K(-gE-G-Z360)-OEG-f[CYwKTC]T-OH]
- IC50 (CCK2R [1]): 7.32 nM
- tissue uptake at 24 h (in vivo; uptake Kidney): 14 %ID/g
- tissue uptake at 24 h (in vivo; uptake Liver): 2.86 %ID/g
- tissue uptake at 24 h (in vivo; uptake Pancreas): 1.6 %ID/g
- tissue uptake at 24 h (in vivo; uptake Spleen): 1.6 %ID/g
- tissue uptake at 24 h (in vivo; uptake Stomach): 2.53 %ID/g
- tissue uptake at 24 h (in vivo; uptake Tumor): 17.1 %ID/g

- IC50 (CCK2R [1]): 1.36 nM
Compound: C[C@@H](O)[C@H](NC(=O)[C@@H]1CSSC[C@H](NC(=O)[C@@H](Cc2ccccc2)NC(=O)[C@H](CCCCNC(=O)[C@H](CCC(=O)O)NC(=O)c2cccc(NC(=O)N[C@@H]3CN(C4CCCCC4)c4ccccc4N(CC(=O)C(C)(C)C)C3=O)c2)NC(=O)CN2CCN(CC(=O)O)CCN(CC(=O)O)CCN(CC(=O)O)CC2)C(=O)N[C@@H](Cc2ccc(O)cc2)C(=O)N[C@H](Cc2c[nH]c3ccccc23)C(=O)N[C@@H](CCCCN)C(=O)N[C@@H]([C@@H](C)O)C(=O)N1)C(=O)O [Compound I-25, DOTA-K(-E-Z360)-f[CYwKTC]T-OH]

- IC50 (CCK2R [1]): 2.67 nM
Compound: C[C@@H](O)[C@H](NC(=O)[C@@H]1CSSC[C@H](NC(=O)[C@@H](Cc2ccccc2)NC(=O)[C@H](CCCCNC(=O)CC[C@H](NC(=O)CNC(=O)c2cccc(NC(=O)N[C@@H]3CN(C4CCCCC4)c4ccccc4N(CC(=O)C(C)(C)C)C3=O)c2)C(=O)O)NC(=O)CN2CCN(CC(=O)O)CCN(CC(=O)O)CCN(CC(=O)O)CC2)C(=O)N[C@@H](Cc2ccc(O)cc2)C(=O)N[C@H](Cc2c[nH]c3ccccc23)C(=O)N[C@@H](CCCCN)C(=O)N[C@@H]([C@@H](C)O)C(=O)N1)C(=O)O [Compound I-26, DOTA-K(-gE-G-Z360)-f[CYwKTC]T-OH]

- IC50 (CCK2R [1]): 4.84 nM
Compound: C[C@@H](O)[C@H](NC(=O)[C@@H]1CSSC[C@H](NC(=O)[C@@H](Cc2ccccc2)NC(=O)[C@H](CCCCNC(=O)COCCOCCNC(=O)[C@H](CCC(=O)O)NC(=O)c2cccc(NC(=O)N[C@@H]3CN(C4CCCCC4)c4ccccc4N(CC(=O)C(C)(C)C)C3=O)c2)NC(=O)CN2CCN(CC(=O)O)CCN(CC(=O)O)CCN(CC(=O)O)CC2)C(=O)N[C@@H](Cc2ccc(O)cc2)C(=O)N[C@H](Cc2c[nH]c3ccccc23)C(=O)N[C@@H](CCCCN)C(=O)N[C@@H]([C@@H](C)O)C(=O)N1)C(=O)O [Compound I-28, DOTA-K(-OEG-E-Z360)-f[CYwKTC]T-OH]

- IC50 (CCK2R [1]): 0.46 nM
Compound: C[C@@H](O)[C@H](NC(=O)[C@@H]1CSSC[C@H](NC(=O)[C@@H](Cc2ccccc2)NC(=O)[C@H](CCCCNC(=O)COCCOCCNC(=O)COCCOCCNC(=O)[C@H](CCC(=O)O)NC(=O)c2cccc(NC(=O)N[C@@H]3CN(C4CCCCC4)c4ccccc4N(CC(=O)C(C)(C)C)C3=O)c2)NC(=O)CN2CCN(CC(=O)O)CCN(CC(=O)O)CCN(CC(=O)O)CC2)C(=O)N[C@@H](Cc2ccc(O)cc2)C(=O)N[C@H](Cc2c[nH]c3ccccc23)C(=O)N[C@@H](CCCCN)C(=O)N[C@@H]([C@@H](C)O)C(=O)N1)C(=O)O [Compound I-29, DOTA-K(-OEG-OEG-E-Z360)-f[CYwKTC]T-OH]

Compound: C[C@@H](O)[C@H](NC(=O)[C@@H]1CSSC[C@H](NC(=O)[C@@H](Cc2ccccc2)NC(=O)COCCOCCNC(=O)[C@H](CCCCNC(=O)COCCOCCNC(=O)[C@H](CCC(=O)O)NC(=O)c2cccc(NC(=O)N[C@@H]3CN(C4CCCCC4)c4ccccc4N(CC(=O)C(C)(C)C)C3=O)c2)NC(=O)CN2CCN(CC(=O)O)CCN(CC(=O)O)CCN(CC(=O)O)CC2)C(=O)N[C@@H](Cc2ccc(O)cc2)C(=O)N[C@H](Cc2c[nH]c3ccccc23)C(=O)N[C@@H](CCCCN)C(=O)N[C@@H]([C@@H](C)O)C(=O)N1)C(=O)O [Compound I-30, DOTA-K(-OEG-E-Z360)-OEG-f[CYwKTC]T-OH]
- IC50 (CCK2R [1]): 1.28 nM

Compound: C[C@@H](O)[C@H](NC(=O)[C@@H]1CSSC[C@H](NC(=O)[C@@H](Cc2ccccc2)NC(=O)COCCOCCNC(=O)[C@H](CCCCNC(=O)c2cccc(NC(=O)N[C@@H]3CN(C4CCCCC4)c4ccccc4N(CC(=O)C(C)(C)C)C3=O)c2)NC(=O)CN2CCN(CC(=O)O)CCN(CC(=O)O)CCN(CC(=O)O)CC2)C(=O)N[C@@H](Cc2ccc(O)cc2)C(=O)N[C@H](Cc2c[nH]c3ccccc23)C(=O)N[C@@H](CCCCN)C(=O)N[C@@H]([C@@H](C)O)C(=O)N1)C(=O)O [Compound I-37, DOTA-K(Z360)-OEG-f[CYwKTC]T-OH]
- IC50 (CCK2R [2]): 4.2 nM
- IC50 (SSTR2 [3]): 3.01 nM
- IC50 (CCK2R [1]): 10.7 nM
- tissue uptake at 24 h (in vivo; uptake Kidney): 7.79 %ID/g
- tissue uptake at 24 h (in vivo; uptake Liver): 2.4 %ID/g
- tissue uptake at 24 h (in vivo; uptake Pancreas): 0.68 %ID/g
- tissue uptake at 24 h (in vivo; uptake Spleen): 0.2 %ID/g
- tissue uptake at 24 h (in vivo; uptake Stomach): 2.58 %ID/g
- tissue uptake at 24 h (in vivo; uptake Tumor): 23.1 %ID/g

- IC50 (CCK2R [4]): 126 nM
- IC50 (SSTR2 [5]): 9.36 nM
Compound: CC(=O)[C@H](Cc1ccc(O)cc1)NC(=O)[C@H](CSSC[C@H](NC(=O)[C@@H](NC(=O)[C@H](CCCCN)NC(=O)[C@H](N)Cc1c[nH]c2ccccc12)[C@@H](C)O)C(=O)N[C@H](C(C)=O)[C@@H](C)O)NC(=O)C(Cc1ccccc1)NC(=O)COCCOCCNC(=O)COCCOCCNC(=O)CC[C@H](NC(=O)C(CCC(=O)O)NC(=O)[C@H](CCCCNC(=O)c1cccc(NC(=O)N[C@@H]2CN(C3CCCCC3)c3ccccc3N(CC(=O)C(C)(C)C)C2=O)c1)NC(=O)CN1CCN(CC(=O)O)CCN(CC(=O)O)CCN(CC(=O)O)CC1)C(=O)O (stereo partly drawn) [Compound I-75, DOTA-K(Z360)-Glu-gGlu-OEG-OEG-f[CYwKTC]T-OH] (I: {DOTA}-K([3Abz-CO-X1])[ξE][γGlu][AEEA][AEEA][ξF]C-X2 / II: H-[dW]KTC-X3; disulfide I:7-II:4)
